What all share (test): DNA polymerase activity inhibition
Type in all cases: biochemical

One experiment has as its target T1, Calf pol α (Bos taurus, UniProt A0AAA9TD94).
T1 construct: from tissue; host or cells: calf thymus
The following applies: 0.05 units enzyme; mean ± SD (n = 3). An excerpt:
(§1) Pol α was purified from calf thymus by immunoaffinity column chromatography as described by Tamai et al.. Recombinant rat pol β was purified from Escherichia coli JMpβ5 as described by Date et al.. The human pol γ catalytic gene was cloned into pFastBac. Histidine-tagged enzyme was expressed using the BACTO-BAC HT Baculovirus Expression System according to the manufacturer's instructions (Life Technologies, Frederick, MD, USA) and purified using ProBound resin (Invitrogen Japan, Tokyo Japan). Human pols δ and ε were purified by nuclear fractionation of human peripheral blood cancer cells (Molt-4) using the second subunit of pol δ and ε-conjugated affinity column chromatography, respectively. A truncated form of human pol η (residues 1–511) tagged with His6 at its C-terminal was expressed in E. coli cells and purified as described by Kusumoto et al.. A recombinant mouse pol ι tagged with His6 at its C-terminal was expressed and purified by Ni–NTA column chromatography. A truncated form of pol κ (residues 1–560) with 6× His-tags attached at the C-terminus was overexpressed in E. coli and purified as described by Ohashi et al.. Recombinant human His-pol λ was overexpressed and purified according to a method described by Shimazaki et al.. Recombinant human His-pol μ was overexpressed in E. coli BL21 and purified using Glutathione Sepharose 4B (GE Healthcare Bio-Science Corp., Piscataway, NJ, USA) column chromatography according to the method for pol λ preparation by Shimazaki et al.. Pol α from a higher plant, cauliflower, was purified from the inflorescence structure according to the methods outlined by Sakaguchi et al.. Recombinant rice (Oryza sativa L. cv. Nipponbare) pol λ tagged with His6 at the C-terminus was expressed in E. coli and purified as described by Uchiyama et al.. Calf TdT, Taq pol, T4 pol, T7 RNA polymerase, and T4 polynucleotide kinase were purchased from Takara Bio Inc. (Kyoto, Japan). The Klenow fragment of pol I from E. coli was purchased from Worthington Biochemical Corp. (Freehold, NJ, USA). Bovine pancreas deoxyribonuclease I was obtained from Stratagene Cloning Systems (La Jolla, CA, USA).
(§2) The reaction mixtures for calf pol α, rat pol β, plant pol α, and prokaryotic pols have been described previously, [35]; those for pol γ as well as pols δ and ε were previously described by Umeda et al. and Ogawa et al., respectively. Those for pols η, ι, and κ were the same as for pol α, and those for pols λ and μ were the same as for pol β. For the pol reactions, poly(dA)/oligo(dT)18 (A/T, 2/1) and dTTP were used as the DNA template-primer substrate and nucleotide (dNTP; 2′-deoxynucleoside-5′-triphosphate) substrate, respectively. For the TdT reactions, oligo(dT)18 (3′-OH) and dTTP were used as the DNA primer substrate and nucleotide substrate, respectively.
(§3) The chemically synthesized 5-O-acyl plumbagins (2a–j) were dissolved in distilled dimethyl sulfoxide (DMSO) to various concentrations and sonicated for 30 s. Subsequently, 4 µL aliquots were mixed with 16 µL of each enzyme (0.05 units) in 50 mM Tris-HCl at pH 7.5, containing 1 mM dithiothreitol, 50% glycerol (by vol), and 0.1 mM ethylenediaminetetraacetic acid and held at 0°C for 10 min. These inhibitor-enzyme mixtures in 8 µL volumes were next added to 16 µL of enzyme standard reaction mixture and incubated at 37°C for 60 min, except for Taq pol, which was incubated at 74°C for 60 min. Activity without inhibitor was considered 100%, and the relative activity was determined for each inhibitor concentration. One unit of pol activity was defined as the amount of each enzyme that catalyzed the incorporation of 1 nmol dTTP into synthetic DNA template primers in 60 min, at 37°C, and under standard reaction conditions, [35].

The target in the next experiment is Cauliflower pol α (Brassica oleracea var. botrytis, UniProt A0A0D3D890).
From the text: as §1, §2, §3

The target in another experiment is T2, E. coli pol I (Escherichia coli, UniProt P00582).
T2 construct: The Klenow fragment of pol I from E. coli was purchased from Worthington Biochemical Corp; purchased Worthington Biochemical Corp. (Freehold, NJ, USA)
T2 sequence (P00582 324-928): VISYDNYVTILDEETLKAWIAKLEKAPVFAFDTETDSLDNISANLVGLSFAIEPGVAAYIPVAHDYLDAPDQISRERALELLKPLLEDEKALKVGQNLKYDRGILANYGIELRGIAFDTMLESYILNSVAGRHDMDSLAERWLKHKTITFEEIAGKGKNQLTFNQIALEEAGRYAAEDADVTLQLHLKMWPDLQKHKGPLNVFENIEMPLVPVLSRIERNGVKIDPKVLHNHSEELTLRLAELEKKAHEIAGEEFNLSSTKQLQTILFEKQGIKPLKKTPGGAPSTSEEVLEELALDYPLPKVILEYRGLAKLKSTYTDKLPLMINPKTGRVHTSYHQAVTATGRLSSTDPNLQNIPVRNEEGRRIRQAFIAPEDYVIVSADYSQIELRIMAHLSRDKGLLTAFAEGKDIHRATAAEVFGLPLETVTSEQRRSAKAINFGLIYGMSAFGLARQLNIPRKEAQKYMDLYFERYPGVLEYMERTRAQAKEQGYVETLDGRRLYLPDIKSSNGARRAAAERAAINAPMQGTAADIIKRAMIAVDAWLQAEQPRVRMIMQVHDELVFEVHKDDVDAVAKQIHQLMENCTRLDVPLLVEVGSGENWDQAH
From the text: as §1, §2, §3

A further experiment has as its target T3, Human pol δ (Homo sapiens, UniProt P28340).
T3 construct: purified by nuclear fractionation of human peripheral blood cancer cells (Molt-4); endogenous in cells; host or cells: Molt-4
The following applies: 0.05 units enzyme; mean ± SD (n = 3).
From the text: as §1, §2, §3

In another experiment the target is T4, Human pol ε (Homo sapiens, UniProt Q07864).
T4 construct: purified by nuclear fractionation of human peripheral blood cancer cells (Molt-4); endogenous in cells; host or cells: Molt-4
T4 sequence (Q07864 whole entry): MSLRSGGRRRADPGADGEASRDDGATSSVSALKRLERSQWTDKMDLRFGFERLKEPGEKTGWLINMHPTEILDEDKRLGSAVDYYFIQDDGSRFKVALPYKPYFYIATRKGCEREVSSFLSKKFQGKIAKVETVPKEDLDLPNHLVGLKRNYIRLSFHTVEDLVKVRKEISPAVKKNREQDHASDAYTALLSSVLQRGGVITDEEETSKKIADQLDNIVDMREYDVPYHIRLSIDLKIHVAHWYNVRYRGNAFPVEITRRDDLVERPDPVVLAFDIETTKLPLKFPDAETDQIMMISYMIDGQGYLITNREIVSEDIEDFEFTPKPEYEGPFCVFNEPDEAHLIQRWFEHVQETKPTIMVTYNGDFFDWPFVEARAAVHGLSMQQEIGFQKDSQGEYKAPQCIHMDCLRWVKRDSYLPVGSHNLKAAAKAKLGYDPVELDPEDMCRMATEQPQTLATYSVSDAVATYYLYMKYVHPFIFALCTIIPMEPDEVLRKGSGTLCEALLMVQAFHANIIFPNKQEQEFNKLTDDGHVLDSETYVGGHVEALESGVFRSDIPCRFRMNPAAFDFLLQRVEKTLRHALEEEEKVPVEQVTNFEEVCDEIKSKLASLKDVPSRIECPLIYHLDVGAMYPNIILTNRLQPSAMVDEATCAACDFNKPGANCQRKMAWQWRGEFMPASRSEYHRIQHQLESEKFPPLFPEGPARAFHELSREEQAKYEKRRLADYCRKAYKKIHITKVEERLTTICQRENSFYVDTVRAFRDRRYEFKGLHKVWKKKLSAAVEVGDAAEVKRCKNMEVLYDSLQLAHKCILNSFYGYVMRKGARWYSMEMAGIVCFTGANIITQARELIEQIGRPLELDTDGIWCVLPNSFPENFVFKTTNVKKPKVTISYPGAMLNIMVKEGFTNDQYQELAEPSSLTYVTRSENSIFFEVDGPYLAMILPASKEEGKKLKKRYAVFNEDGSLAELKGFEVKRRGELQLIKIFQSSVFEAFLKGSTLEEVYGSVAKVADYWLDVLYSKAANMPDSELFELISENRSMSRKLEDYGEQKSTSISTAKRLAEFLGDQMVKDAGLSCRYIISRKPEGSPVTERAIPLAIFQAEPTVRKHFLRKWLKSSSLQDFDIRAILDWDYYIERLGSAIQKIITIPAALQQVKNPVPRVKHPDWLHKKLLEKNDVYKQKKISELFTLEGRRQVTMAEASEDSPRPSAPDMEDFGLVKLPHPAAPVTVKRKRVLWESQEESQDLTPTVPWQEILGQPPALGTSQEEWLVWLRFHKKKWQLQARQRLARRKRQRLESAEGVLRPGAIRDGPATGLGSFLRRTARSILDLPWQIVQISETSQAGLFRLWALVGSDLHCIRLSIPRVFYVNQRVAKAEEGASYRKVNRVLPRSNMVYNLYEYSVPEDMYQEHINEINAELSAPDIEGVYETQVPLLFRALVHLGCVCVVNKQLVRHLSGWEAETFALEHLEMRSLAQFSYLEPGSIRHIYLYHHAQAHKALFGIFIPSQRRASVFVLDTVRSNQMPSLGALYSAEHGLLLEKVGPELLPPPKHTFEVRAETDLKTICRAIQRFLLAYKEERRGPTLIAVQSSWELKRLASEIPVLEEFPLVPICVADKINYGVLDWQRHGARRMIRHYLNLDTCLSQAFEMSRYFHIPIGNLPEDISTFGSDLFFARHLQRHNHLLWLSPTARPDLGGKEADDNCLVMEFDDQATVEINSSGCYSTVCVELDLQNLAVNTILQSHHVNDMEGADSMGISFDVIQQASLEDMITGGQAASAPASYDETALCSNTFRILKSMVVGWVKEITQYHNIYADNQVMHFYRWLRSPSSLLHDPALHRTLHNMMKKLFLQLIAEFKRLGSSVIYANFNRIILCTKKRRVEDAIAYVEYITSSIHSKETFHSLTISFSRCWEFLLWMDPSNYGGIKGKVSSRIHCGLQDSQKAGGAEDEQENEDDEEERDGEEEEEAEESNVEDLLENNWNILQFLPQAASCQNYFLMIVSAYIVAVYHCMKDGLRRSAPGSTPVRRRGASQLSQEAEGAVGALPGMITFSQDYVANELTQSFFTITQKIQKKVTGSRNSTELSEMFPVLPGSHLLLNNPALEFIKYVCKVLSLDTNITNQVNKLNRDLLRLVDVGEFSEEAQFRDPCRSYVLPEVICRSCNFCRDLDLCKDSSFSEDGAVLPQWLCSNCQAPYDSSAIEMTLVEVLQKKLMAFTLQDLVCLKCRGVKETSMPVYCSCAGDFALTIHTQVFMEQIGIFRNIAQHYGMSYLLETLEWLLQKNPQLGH
The following applies: 0.05 units enzyme; mean ± SD (n = 3).
From the text: as §1, §2, §3

In a further experiment the target is T5, Human pol η (Homo sapiens, UniProt Q9Y253).
T5 construct: A truncated form of human pol η (residues 1–511) tagged with His6 at its C-terminal; His6 (C); made in house; host or cells: E. coli
T5 sequence (Q9Y253 1-511): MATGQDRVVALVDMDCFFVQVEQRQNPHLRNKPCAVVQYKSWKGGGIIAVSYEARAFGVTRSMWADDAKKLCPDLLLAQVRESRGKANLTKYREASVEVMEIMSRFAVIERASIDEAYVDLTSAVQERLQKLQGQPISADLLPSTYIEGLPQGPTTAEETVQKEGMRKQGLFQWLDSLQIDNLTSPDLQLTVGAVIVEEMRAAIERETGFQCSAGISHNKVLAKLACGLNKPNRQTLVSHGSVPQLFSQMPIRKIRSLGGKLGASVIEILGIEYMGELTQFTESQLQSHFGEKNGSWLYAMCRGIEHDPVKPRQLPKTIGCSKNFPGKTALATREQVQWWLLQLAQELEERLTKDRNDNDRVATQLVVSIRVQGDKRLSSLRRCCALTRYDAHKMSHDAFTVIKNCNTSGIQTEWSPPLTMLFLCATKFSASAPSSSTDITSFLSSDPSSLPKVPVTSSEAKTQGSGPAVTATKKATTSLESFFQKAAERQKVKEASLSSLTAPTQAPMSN
The following applies: 0.05 units enzyme; mean ± SD (n = 3).
From the text: as §1, §2, §3

A further experiment has as its target T6, Human pol κ (Homo sapiens, UniProt Q9UBT6).
T6 construct: A truncated form of pol κ (residues 1–560) with 6× His-tags attached at the C-terminus; 6× His (C); made in house; host or cells: E. coli
T6 sequence (Q9UBT6 1-560): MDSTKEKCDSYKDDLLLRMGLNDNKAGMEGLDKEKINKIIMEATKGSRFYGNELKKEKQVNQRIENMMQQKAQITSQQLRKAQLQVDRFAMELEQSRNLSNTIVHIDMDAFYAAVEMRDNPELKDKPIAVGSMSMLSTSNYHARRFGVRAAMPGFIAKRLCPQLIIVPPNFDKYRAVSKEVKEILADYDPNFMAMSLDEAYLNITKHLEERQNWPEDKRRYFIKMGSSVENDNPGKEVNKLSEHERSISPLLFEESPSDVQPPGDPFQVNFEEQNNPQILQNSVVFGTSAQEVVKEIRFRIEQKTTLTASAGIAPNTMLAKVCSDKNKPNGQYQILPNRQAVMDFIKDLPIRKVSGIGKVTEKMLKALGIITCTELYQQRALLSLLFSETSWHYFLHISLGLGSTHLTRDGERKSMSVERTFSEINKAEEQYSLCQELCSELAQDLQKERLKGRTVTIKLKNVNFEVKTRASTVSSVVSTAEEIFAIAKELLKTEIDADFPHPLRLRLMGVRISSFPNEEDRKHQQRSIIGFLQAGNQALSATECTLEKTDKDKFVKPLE
To be noted: 0.05 units enzyme; mean ± SD (n = 3).
From the text: as §1, §2, §3

In another experiment the target is T7, Human pol μ (Homo sapiens, UniProt Q9NP87).
T7 construct: His tag; made in house; host or cells: E. coli BL21
T7 sequence (Q9NP87 whole entry): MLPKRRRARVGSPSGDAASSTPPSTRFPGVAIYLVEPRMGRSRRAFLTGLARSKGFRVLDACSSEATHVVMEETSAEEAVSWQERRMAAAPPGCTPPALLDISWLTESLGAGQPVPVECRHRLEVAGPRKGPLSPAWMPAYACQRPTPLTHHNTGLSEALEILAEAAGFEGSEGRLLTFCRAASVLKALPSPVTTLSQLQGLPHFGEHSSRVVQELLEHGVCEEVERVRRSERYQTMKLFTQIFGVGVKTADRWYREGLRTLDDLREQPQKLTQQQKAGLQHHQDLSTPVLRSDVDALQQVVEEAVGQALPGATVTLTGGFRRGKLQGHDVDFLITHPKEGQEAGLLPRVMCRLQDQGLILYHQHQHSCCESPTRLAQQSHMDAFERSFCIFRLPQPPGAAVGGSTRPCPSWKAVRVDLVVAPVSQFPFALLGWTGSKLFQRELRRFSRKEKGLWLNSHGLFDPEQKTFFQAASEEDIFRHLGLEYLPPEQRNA
To be noted: 0.05 units enzyme; mean ± SD (n = 3).
From the text: as §1, §2, §3

A further experiment concerns the target T8, Mouse pol ι (Mus musculus, UniProt Q6R3M4).
T8 construct: His6 (C); made in house
To be noted: 0.05 units enzyme; mean ± SD (n = 3).
From the text: as §1, §2, §3

In the next experiment the target is T9, Rat pol β (Rattus norvegicus, UniProt P06766).
T9 construct: made in house; host or cells: Escherichia coli JMpβ5
The following applies: 0.05 units enzyme; mean ± SD (n = 3).
From the text: as §1, §2, §3

We go through one molecule from publication PMC3919815, “Anti-Tumor Effects of Novel 5-O-Acyl Plumbagins Based on the Inhibition of Mammalian DNA Replicative Polymerase Activity” (PLoS ONE, 2014).

Each structure is given as a SMILES string.

T3 sequence (P28340 whole entry): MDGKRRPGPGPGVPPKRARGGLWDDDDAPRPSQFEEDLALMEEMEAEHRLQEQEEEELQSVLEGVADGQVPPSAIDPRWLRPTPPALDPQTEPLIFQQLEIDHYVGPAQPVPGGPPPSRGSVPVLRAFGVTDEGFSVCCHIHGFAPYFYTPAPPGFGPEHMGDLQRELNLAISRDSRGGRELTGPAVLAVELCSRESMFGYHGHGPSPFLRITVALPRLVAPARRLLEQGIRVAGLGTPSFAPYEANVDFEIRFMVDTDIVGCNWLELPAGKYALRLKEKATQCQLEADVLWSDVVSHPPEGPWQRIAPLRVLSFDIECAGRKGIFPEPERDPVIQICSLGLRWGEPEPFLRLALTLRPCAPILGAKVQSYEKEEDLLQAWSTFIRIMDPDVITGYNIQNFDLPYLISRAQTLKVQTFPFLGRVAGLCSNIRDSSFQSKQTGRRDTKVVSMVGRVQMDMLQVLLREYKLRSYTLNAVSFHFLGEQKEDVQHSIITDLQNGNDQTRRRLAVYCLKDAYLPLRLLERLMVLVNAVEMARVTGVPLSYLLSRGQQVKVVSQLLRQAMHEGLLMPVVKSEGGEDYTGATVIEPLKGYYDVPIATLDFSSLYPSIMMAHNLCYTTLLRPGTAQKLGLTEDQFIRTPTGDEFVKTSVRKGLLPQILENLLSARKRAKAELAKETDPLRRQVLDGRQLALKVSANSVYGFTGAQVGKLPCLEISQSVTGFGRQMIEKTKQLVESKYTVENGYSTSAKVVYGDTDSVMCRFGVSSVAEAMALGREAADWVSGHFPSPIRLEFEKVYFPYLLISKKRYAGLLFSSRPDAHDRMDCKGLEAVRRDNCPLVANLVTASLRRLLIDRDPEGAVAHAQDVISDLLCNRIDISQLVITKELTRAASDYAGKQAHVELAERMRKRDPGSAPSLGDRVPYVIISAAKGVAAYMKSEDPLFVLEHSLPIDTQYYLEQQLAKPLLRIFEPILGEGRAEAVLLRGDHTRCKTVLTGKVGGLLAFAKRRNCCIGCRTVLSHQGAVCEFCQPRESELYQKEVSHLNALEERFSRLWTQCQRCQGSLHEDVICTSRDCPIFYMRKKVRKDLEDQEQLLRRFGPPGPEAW

As to `CCCCCCCC/C=C\CCCCCCCC(=O)Oc1cccc2c1C(=O)C=C(C)C2=O` [2f, 5-O-oleoyl-2-methyl-1,4-naphthoquinone], the half-maximal inhibitory concentration (IC50) (usually the concentration that gives 50% inhibition) was 4.8 ± 0.38 µM on Calf pol α; over 100 µM against E. coli pol I (0.05 units enzyme); 5.3 ± 0.41 µM against Human pol δ; 4.9 ± 0.4 µM against Human pol ε; 7.9 ± 0.42 µM against Human pol η; 7.6 ± 0.41 µM against Human pol κ. Besides, the IC50 at Human pol μ was found to be 9.5 ± 0.48 µM; against Mouse pol ι it was 8.2 ± 0.43 µM; on Rat pol β it was 10.3 ± 0.46 µM. The “effect on enzyme activity (in words)” value at Cauliflower pol α and on E. coli pol I was “had no effect” in each case.
